pKi: −log10 of the molar value.
How the values were obtained:
[1] = Plasma pharmacokinetics of taminadenant in the phase I/Ib study; type: in vivo, human
A2AR = settings: cells transfected with A2AR; cited from earlier work
[2] = tested on: advanced/metastatic NSCLC; test: Tumor response; type: in vivo, human
[3] = tested on: patients with advanced NSCLC; test: Safety, tolerability, DLT and MTD in the phase I/Ib dose-escalation study; type: in vivo
mouse xenograft models = settings: cited from earlier work
human A2AR = settings: cited from earlier work
[4] = investigator-assessed, RECIST v1.1, n=25

Nc1nc(-n2cccn2)nc(-n2cccn2)c1Br [Taminadenant]
Vd/F ([1]; human, in vivo): 114 to 1520 L | apparent clearance (CL/F) upon repeated daily dosing compared with a single dose ([1]; human, in vivo): notably decreased | time to maximum plasma drug concentration (Cmax) ([1]; human, in vivo, po): 0.5 to 3 h | differences in taminadenant PK between the single-agent and combination group ([1]; large inter-individual variability in Cmax and AUC): no notable differences | accumulation relative to a single dose ([1]; repeated daily doses, after 1 week): approximately 3 fold | increase of systemic exposure (Cmax, AUC) with escalating doses ([1]; single and multiple doses from 80 mg to 640 mg): more-than-proportional | effect on cyclic adenosine monophosphate accumulation (A2AR): inhibition of cyclic adenosine monophosphate accumulation | Disease control rate ([2]; CR + PR + SD, based on the number of evaluable patients): 42.9 (21.8–66.0) % (95% CI) | Overall response rate ([2]; CR + PR, based on the number of evaluable patients): 9.5 (1.2–30.4) % (95% CI) | median estimate of OS ([2]; Kaplan-Meier): 9.7 months | median estimate of PFS ([2]; Kaplan-Meier, RECIST v1.1): 3.9 months | Best overall response: Complete response [2, 4]: 1 (4.0) n (%) | Best overall response: Non-evaluable [2, 4]: 4 (16.0) n (%) | Best overall response: Partial response [2, 4]: 1 (4.0) n (%) | Best overall response: Progressive disease [2, 4]: 12 (48.0) n (%) | Best overall response: Stable disease [2, 4]: 7 (28.0) n (%) | patients who achieved disease control ([2]; of all 25 patients per group): 36.0% | duration of complete response ([2]; one patient each, single agent 480 mg, combination 160 mg taminadenant): 1.1 months | duration of disease control in a patient with stable disease ([2]; one patient, 160 mg, on treatment at data cut-off): 36.7 months | dose delays or interruptions ([3]; human, in vivo): 13 patients | patients who discontinued due to adverse events ([3]; human, in vivo): 12.0% | patients with Grade 3/4 TRAEs ([3]; human, in vivo): 16.0% | patients with treatment-related adverse events (TRAEs) of any grade ([3]; human, in vivo): 84.0% | patients with treatment-related fatigue ([3]; human, in vivo): 20.0% | patients with treatment-related gastroesophageal reflux disease ([3]; human, in vivo): 24.0% | patients with treatment-related nausea ([3]; human, in vivo): 44.0% | patients with treatment-related vomiting ([3]; human, in vivo): 20.0% | dose delays due to TRAEs ([3]; in vivo): five | patients reporting at least one adverse event, regardless of causality ([3]; in vivo): All patients | tolerability ([3]; in vivo): well tolerated | on-study deaths ([3]; n=25 per group, none related to study treatment): 8.0% | maximum tolerated dose (MTD) of taminadenant ([3]; oral, combination with 400 mg spartalizumab Q4W): 480 mg BID | effect on tumor growth (mouse xenograft models): significantly reduced tumor growth | in vitro binding affinity to human A2AR, as concentration (human A2AR): 3.67 ng/mL | pKi (human A2AR; read-out: in vitro binding affinity to human A2AR): 7.92
